Data reported in paper PMC10139033, “Identification of Potential p38γ Inhibitors via In Silico Screening, In Vitro Bioassay and Molecular Dynamics Simulation Studies” (International Journal of Molecular Sciences, 2023).
Read-outs that look alike come from different tables or passages of the source.

What was measured:
p38γ [1] = target: T1, p38γ (Homo sapiens, UniProt P53778); parameters: method as in PMID 29758280; conditions: read-out: experimental IC50 on p38γ; cited from earlier work
T1 construct: purchased Promega
T1 sequence (P53778 1-367): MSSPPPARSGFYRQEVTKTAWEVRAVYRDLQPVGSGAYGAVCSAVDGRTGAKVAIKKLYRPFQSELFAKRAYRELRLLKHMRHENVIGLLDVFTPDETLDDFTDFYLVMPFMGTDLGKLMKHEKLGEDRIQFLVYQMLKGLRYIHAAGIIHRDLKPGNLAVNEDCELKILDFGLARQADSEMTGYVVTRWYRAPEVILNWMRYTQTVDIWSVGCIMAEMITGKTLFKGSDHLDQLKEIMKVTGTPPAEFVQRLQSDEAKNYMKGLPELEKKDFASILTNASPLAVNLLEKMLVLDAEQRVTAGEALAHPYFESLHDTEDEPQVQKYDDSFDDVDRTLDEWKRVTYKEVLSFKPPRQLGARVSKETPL

HepG2 cells = test: CCK-8 cytotoxicity assay, HepG2; type: cell-based, human
Protocol: (§1) The compounds were tested for HCC cell lines using the Cell Counting Kit-8 (CCK-8) (Absin, Shanghai, China). The human HCC cell lines Huh7 and HepG2 were cultured in high-glucose Dulbecco’s modified Eagle’s medium (DMEM) supplemented with 10% fetal bovine serum (FBS), 1% penicillin, and 1% penicillin/streptomycin at 37 °C with 5% CO2. Huh7 and HepG2 cells were seeded into white 96-well plates at 3 × 10^3 cells per well in 100 μL suspension and pre-incubated overnight. The cells were then treated with different compound concentrations and incubated for 48 h. Control wells just contained cell suspension, while blank wells were added with complete media. The effects on proliferation were determined by the addition of 10 µL CCK-8 reagent, followed by incubation for 1 h. Finally, the absorbance of the reaction was measured at 450 nm using a Victor Nivo Multimode Microplate Reader. Cell viability was calculated as follows: Cell viability%= experimental well absorbance−blank well absorbance /control well absorbance−blank well absorbance ×100%
(§2) All data were collected from triplicate experiments and presented as the mean ± standard deviation of the mean. Data were analyzed using Graph Prism v9.0.0.121. One sample t test was used to calculate the statistical significance of the differences. p < 0.05 was considered statistically significant. The four-parameter dose-response curves and IC50 values were determined by a non-linear regression curve fitting method.

p38γ [2] = target: T1, p38γ; test: p38γ kinase enzyme system with ADP-Glo kinase assay; type: biochemical
Protocol: The inhibitory assay of p38γ was performed using the p38γ kinase enzyme system (Promega, Madison, WI, USA) with the ADP-Glo™ kinase assay kit (Promega, Madison, WI, USA). The kinase reactions were conducted in a total assay volume of 5 μL in a white 384-well plate. The kinase reaction mixture per well was composed using the reaction buffer supplemented with 50μM DTT and contained 50 ng p38γ, 1μg p38 substrate, 50 μM ATP, and the tested compound at the specified concentrations. Positive control wells receive 5% DMSO instead of 1 μL of the compound solution, and negative control wells are without both compound and enzyme in the reaction. After incubation of the plates at room temperature for 60 min, the reaction was stopped with 5 μL of ADP-Glo™ reagent for 40 min. Next, 10 µL of kinase detection reagent was added and incubated for another 30 min to convert the ADP to ATP. The ATP was then detected by measuring the luminescence using a Victor Nivo multimode microplate reader (PerkinElmer, Waltham, MA, USA) in an integration time of 1 s per well. The relative kinase activity was calculated as follows: p38γ kinase activity %=Lumenescence of compound−luminescence of negative control /Lumenescence of positive control−luminescence of negative control ×100%
as §2

Huh7 cells = test: CCK-8 cytotoxicity assay, Huh7; type: cell-based, human
Protocol: as §1, §2

| SMILES | IC50 (p38γ [1]) | effect on viability of HepG2 cells (HepG2 cells; 1 µM, 48 h) | effect on HCC cell growth (HepG2) (HepG2 cells; 10 and 100 µM, 48 h) | IC50 (HepG2 cells; Homo sapiens, HepG2, 48 h treatment) | reduction of p38γ activity (p38γ [2]; 1 μM) | reduction of p38γ activity (p38γ [2]; 10 μM) | reduction of p38γ activity (p38γ [2]; 100 μM) | IC50 (p38γ [2]; 12-point four-fold dilution from 100 μM, 50 μM ATP) | effect on viability of Huh7 cells (Huh7 cells; 1 µM, 48 h) | effect on HCC cell growth (Huh7) (Huh7 cells; 10 and 100 µM, 48 h) | IC50 (Huh7 cells; Homo sapiens, Huh-7, 48 h treatment) |
| --- | --- | --- | --- | --- | --- | --- | --- | --- | --- | --- | --- |
| Cc1ccc(=O)n(-c2ccccc2)c1 [pirfenidone] | > 125 µM | – | – | – | – | – | – | – | – | – | – |
| O=C(C1CC(=O)N(C2CCS(=O)(=O)C2)C1)N1CCC(c2c[nH]c3ncccc23)CC1 (centres unmarked) [compound 2, 1-(1,1-dioxothiolan-3-yl)-4-[4-(1H-pyrrolo [2,3-b]pyridin-3-yl)piperidine-1-carbonyl]pyrrolidin-2-one] | – | no effect | potent inhibitory effects | 19.2 µM | 72.43% | 93.12% | 96.18% | 16.8 nM | no effect | potent inhibitory effects | 11.9 µM |
